Values quoted from earlier work as cited in patent publication US20020119970A1, “Method for treating glaucoma IIB” (priority 2000, published 2002).

Legend:
[1] = tested on: Aged Rhesus monkeys; conditions: drug treated vs. control eye; baseline and pilocarpine-stimulated conditions; result referred to co-filed application "Methods for Treating Glaucoma I"
[2] = tested on: Rhesus monkeys; conditions: accommodative responses to i.m. pilocarpine; result referred to co-filed application "Methods for Treating Glaucoma I"

Structure (SMILES): Cc1sc[n+](CC(=O)c2ccccc2)c1C.[Cl-] [4,5-dimethyl-3-(2-oxoethyl-phenethyl)thiazolium chloride]
- improvement in ophthalmologic function (fluid outflow facility) [1]: improvement has been illustrated
- Improvement in accommodation [2]: Improvement in accommodation has been illustrated
